In US12371454B2, “Cyclic peptide compound having Kras inhibitory action” (priority 2019, dated 2025):
Starred links: 1 amine or outer side, 2 acyl side, 3 side chain; linkers in the order of their positions; H or OH if unused. Positions of bridges follow the written chain, without caps; N, C: chain ends. Non-standard residues stand in square brackets, D forms with d. Residues, ends and D or L forms follow the SMILES beside them. *: point of attachment. NMeAbu(3,3-F2-piperidino) = CN[C@@H](CCN1CCCC(F)(F)C1)C(=O)O; hPhe(3-Cl-4-CF3) = N[C@@H](CCc1ccc(C(F)(F)F)c(Cl)c1)C(=O)O; hPhe(3-F,4-CF3) = N[C@@H](CCc1ccc(C(F)(F)F)c(F)c1)C(=O)O; NMeAbu(4,4,4-F3) = CN[C@@H](CC(F)(F)F)C(=O)O; NMePhe(3-Cl) = CN[C@@H](Cc1cccc(Cl)c1)C(=O)O; NMePhe(4-Me) = CN[C@@H](Cc1ccc(C)cc1)C(=O)O; NMedβ3hAla = C[C@H](CC(=O)[*:2])N(C)[*:1]; dβ3hPip = O=C(C[C@H]1CCCCN1[*:1])[*:2]; NMeAla(cPr) = CN[C@@H](CC1CC1)C(=O)O; NMeGly(cBu) = CN[C@H](C(=O)O)C1CCC1; NMeCha = CN[C@@H](CC1CCCCC1)C(=O)O; NMehLeu = CN[C@@H](CCC(C)C)C(=O)O; NMeChg = CN[C@H](C(=O)O)C1CCCCC1; NMeI = CC[C@H](C)[C@H](NC)C(=O)O; NMeT = CN[C@H](C(=O)O)[C@@H](C)O; NMeD = CN[C@@H](CC(=O)O)C(=O)O; NMeL = CN[C@@H](CC(C)C)C(=O)O; NMeNva = CCC[C@H](NC)C(=O)O; NMeV = CN[C@H](C(=O)O)C(C)C; Trifluoroethyl = FC(F)(F)C*; d(β3hA) = C[C@@H](N)CC(=O)O; NMeS = CN[C@@H](CO)C(=O)O; Morpholide = C1CN(*)CCO1; NMeA = CN[C@@H](C)C(=O)O; Piperidide = C1CCN(*)CC1; Pyrrolidide = C1CCN(*)C1; Ac5c = NC1(C(=O)O)CCCC1; Aze = O=C(O)[C@@H]1CCN1; Sar = CNCC(=O)O; Propyl = CCC*

Assays:
[1] = biological target: T1, Kras and SOS1 (biotin-tagged human Kras loaded with GDP, His-tagged human SOS1) (Homo sapiens, UniProt P01116, G12D); experiment: Protein-protein interaction inhibition between Kras and SOS1 (KrasGl2D-SOS PPI) using AlphaScreen; assay type: binding; conditions: AlphaScreen; biotin-tagged human Kras loaded with GDP, His-tagged human SOS1; read-out: KRAS G12D-SOS PPI IC50
T1 construct: made in house; host or cells: E. coli (stated for Kras only)
In short: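 Read-out is acceptor-bead light at 520-620 nm, arising when 680 nm-irradiated nickel donor beads pass singlet oxygen to streptavidin acceptors. The bead pair links His-tagged SOS1 with biotin-tagged, GDP-bound Kras from E. coli.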

[2] = system: Human pancreatic cancer cell line AsPC-1; experiment: Measurement of AsPC-1 cell growth inhibition (AsPC-1 CGI); assay type: cell-based; conditions: 96 h
In short: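 AsPC-1 cells in 15% FBS RPMI-1640 were exposed to test compound for 96 hours at 37° C, with CellTiter-Glo as endpoint.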

T1 sequence (P01116 1-188 isoform P01116-2 G12D): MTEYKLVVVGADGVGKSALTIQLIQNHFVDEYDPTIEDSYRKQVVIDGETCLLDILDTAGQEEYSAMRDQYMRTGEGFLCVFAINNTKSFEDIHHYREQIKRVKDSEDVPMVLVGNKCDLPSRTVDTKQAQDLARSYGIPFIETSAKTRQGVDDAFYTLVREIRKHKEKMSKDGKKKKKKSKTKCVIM

SMILES | IC50 [1] | IC50 [2]
CC[C@H](C)[C@@H]1NC(=O)[C@H](C)N(C)C(=O)C[C@@H](C)N(C)C(=O)[C@H](C(C)C)N(C)C(=O)C2(CCCC2)NC(=O)[C@@H]2CCCN2C(=O)[C@H](CCc2ccc(C(F)(F)F)c(Cl)c2)NC(=O)CN(C)C(=O)[C@H](CC2CCCCC2)N(C)C(=O)CN(C)C(=O)CN(C)C1=O [Compound 714] (cyclo([Ac5c][NMeV][NMedβ3hAla][NMeA]I[Sar][Sar][NMeCha][Sar][hPhe(3-Cl-4-CF3)]P)) | 2.3 nM | 100 to 500 nM
CC[C@H](C)[C@@H]1NC(=O)[C@H](CC(C)C)N(C)C(=O)C[C@@H](C(=O)N2CCCCC2)N(C)C(=O)[C@H](C2CCCCC2)N(C)C(=O)C2(CCCC2)NC(=O)[C@@H]2CCCN2C(=O)[C@H](CCc2ccc(C(F)(F)F)c(Cl)c2)NC(=O)CN(C)C(=O)[C@H](COCC(F)(F)F)N(C)C(=O)CN(C)C(=O)CN(C)C1=O [Compound 732] ([NMeL]I[Sar][Sar][NMeS](Trifluoroethyl)[Sar][hPhe(3-Cl-4-CF3)]P[Ac5c][NMeChg][NMeD]-Piperidide; lactam N-11) | 1.4 nM | 100 to 500 nM
CCCOC[C@H]1C(=O)N(C)CC(=O)N[C@@H](CCc2ccc(C(F)(F)F)c(Cl)c2)C(=O)N2CCC[C@H]2C(=O)NC2(CCCC2)C(=O)N(C)[C@@H](C2CCCCC2)C(=O)N(C)[C@H](C(=O)N2CCCC2)CC(=O)N(C)[C@@H](CC(F)(F)F)C(=O)N[C@@H]([C@@H](C)CC)C(=O)N(C)CC(=O)N(C)CC(=O)N1C [Compound 735] ([NMeAbu(4,4,4-F3)]I[Sar][Sar][NMeS](Propyl)[Sar][hPhe(3-Cl-4-CF3)]P[Ac5c][NMeChg][NMeD]-Pyrrolidide; lactam N-11) | 0.44 nM | 50 to 100 nM
CC[C@H](C)[C@@H]1NC(=O)[C@H](CC(C)C)N(C)C(=O)C[C@H]2CCCCN2C(=O)[C@H](C(C)C)N(C)C(=O)C2(CCCC2)NC(=O)[C@@H]2CCCN2C(=O)[C@H](CCc2ccc(C(F)(F)F)c(Cl)c2)NC(=O)CN(C)C(=O)[C@H](CC2CCCCC2)N(C)C(=O)CN(C)C(=O)CN(C)C1=O [Compound 747] (cyclo([Ac5c][NMeV][dβ3hPip][NMeL]I[Sar][Sar][NMeCha][Sar][hPhe(3-Cl-4-CF3)]P)) | 11 nM | 100 to 500 nM
CC[C@H](C)[C@@H]1NC(=O)[C@H]([C@@H](C)O)N(C)C(=O)C[C@@H](C(=O)N2CCCCC2)N(C)C(=O)[C@H](C2CCCCC2)N(C)C(=O)C2(CCCC2)NC(=O)[C@@H]2CCCN2C(=O)[C@H](CCc2ccc(C(F)(F)F)c(Cl)c2)NC(=O)CN(C)C(=O)[C@H](CC2CCCCC2)N(C)C(=O)CN(C)C(=O)CN(C)C1=O [Compound 756] ([NMeT]I[Sar][Sar][NMeCha][Sar][hPhe(3-Cl-4-CF3)]P[Ac5c][NMeChg][NMeD]-Piperidide; lactam N-11) | 0.58 nM | 100 to 500 nM
CC[C@H](C)[C@@H]1NC(=O)[C@H](CC(C)C)N(C)C(=O)C[C@@H](C(=O)N2CCCCC2)N(C)C(=O)[C@H](CCC(C)C)N(C)C(=O)C2(CCCC2)NC(=O)[C@@H]2CCCN2C(=O)[C@H](CCc2ccc(C(F)(F)F)c(Cl)c2)NC(=O)CN(C)C(=O)[C@H](CC2CCCCC2)N(C)C(=O)CN(C)C(=O)CN(C)C1=O [Compound 762] ([NMeL]I[Sar][Sar][NMeCha][Sar][hPhe(3-Cl-4-CF3)]P[Ac5c][NMehLeu][NMeD]-Piperidide; lactam N-11) | 5.5 nM | 100 to 500 nM
CC[C@H](C)[C@@H]1NC(=O)[C@H](CC(F)(F)F)N(C)C(=O)C[C@@H](C(=O)N2CCOCC2)N(C)C(=O)[C@H](C2CCCCC2)N(C)C(=O)C2(CCCC2)NC(=O)[C@@H]2CCCN2C(=O)[C@H](CCc2ccc(C(F)(F)F)c(Cl)c2)NC(=O)CN(C)C(=O)[C@H](CC2CCCCC2)N(C)C(=O)CN(C)C(=O)CN(C)C1=O [Compound 774] ([NMeAbu(4,4,4-F3)]I[Sar][Sar][NMeCha][Sar][hPhe(3-Cl-4-CF3)]P[Ac5c][NMeChg][NMeD]-Morpholide; lactam N-11) | 0.55 nM | 20 to 50 nM
CCC[C@H]1C(=O)N[C@@H]([C@@H](C)CC)C(=O)N(C)CC(=O)N(C)CC(=O)N(C)[C@@H](CC2CCCCC2)C(=O)N(C)CC(=O)N[C@@H](CCc2ccc(C(F)(F)F)c(Cl)c2)C(=O)N2CCC[C@H]2C(=O)NC2(CCCC2)C(=O)N(C)[C@@H](C2CCCCC2)C(=O)N(C)[C@H](C(=O)N2CCCCC2)CC(=O)N1C [Compound 778] ([NMeNva]I[Sar][Sar][NMeCha][Sar][hPhe(3-Cl-4-CF3)]P[Ac5c][NMeChg][NMeD]-Piperidide; lactam N-11) | 0.7 nM | 20 to 50 nM
CC[C@H](C)[C@@H]1NC(=O)[C@H](CC(C)C)N(C)C(=O)C[C@@H](C(=O)N(C)C)N(C)C(=O)[C@H]([C@@H](C)CC)N(C)C(=O)C2(CCCC2)NC(=O)[C@H](Cc2cccc(Cl)c2)N(C)C(=O)[C@H](CCc2ccc(C(F)(F)F)c(Cl)c2)NC(=O)CN(C)C(=O)[C@H](Cc2ccc(C)cc2)N(C)C(=O)[C@@H]2CCN2C(=O)[C@H](C)N(C)C1=O [Compound 783] ([NMeL]I[NMeA][Aze][NMePhe(4-Me)][Sar][hPhe(3-Cl-4-CF3)][NMePhe(3-Cl)][Ac5c][NMeI][NMeD]-NMe2; lactam N-11) | 9.8 nM | 50 to 100 nM
CC[C@H](C)[C@@H]1NC(=O)[C@H](CC(C)C)N(C)C(=O)C[C@@H](C(=O)N2CCCCC2)N(C)C(=O)[C@H](CC2CC2)N(C)C(=O)C2(CCCC2)NC(=O)[C@@H]2CCCN2C(=O)[C@H](CCc2ccc(C(F)(F)F)c(Cl)c2)NC(=O)CN(C)C(=O)[C@H](CC2CCCCC2)N(C)C(=O)CN(C)C(=O)CN(C)C1=O [Compound 787] ([NMeL]I[Sar][Sar][NMeCha][Sar][hPhe(3-Cl-4-CF3)]P[Ac5c][NMeAla(cPr)][NMeD]-Piperidide; lactam N-11) | 2.9 nM | 100 to 500 nM
CC[C@H](C)[C@@H]1NC(=O)[C@H](CC(C)C)N(C)C(=O)C[C@@H](C(=O)N2CCCC2)N(C)C(=O)[C@H](C(C)C)N(C)C(=O)C2(CCCC2)NC(=O)[C@@H]2CCCN2C(=O)[C@H](CCc2ccc(C(F)(F)F)c(F)c2)NC(=O)CN(C)C(=O)[C@H](CC2CCCCC2)N(C)C(=O)CN(C)C(=O)CN(C)C1=O [Compound 804] ([NMeL]I[Sar][Sar][NMeCha][Sar][hPhe(3-F,4-CF3)]P[Ac5c][NMeV][NMeD]-Pyrrolidide; lactam N-11) | 0.99 nM | 100 to 500 nM
CCCOC[C@H]1C(=O)N2CC[C@H]2C(=O)N(C)[C@@H](CC2CCCCC2)C(=O)N(C)CC(=O)N[C@@H](CCc2ccc(C(F)(F)F)c(Cl)c2)C(=O)N2CCC[C@H]2C(=O)NC2(CCCC2)C(=O)N(C)[C@@H](C(C)C)C(=O)N(C)[C@H](C(=O)N2CCCCC2)CC(=O)N(C)[C@@H](CC(C)C)C(=O)N[C@@H]([C@@H](C)CC)C(=O)N1C [Compound 809] ([NMeL]I[NMeS](Propyl)[Aze][NMeCha][Sar][hPhe(3-Cl-4-CF3)]P[Ac5c][NMeV][NMeD]-Piperidide; lactam N-11) | 47 nM | 100 to 500 nM
CC[C@H](C)[C@@H]1NC(=O)[C@H](CC(F)(F)F)N(C)C(=O)C[C@@H](C(=O)N2CCCC2)N(C)C(=O)[C@H](C2CCCCC2)N(C)C(=O)C2(CCCC2)NC(=O)[C@@H]2CCCN2C(=O)[C@H](CCc2ccc(C(F)(F)F)c(Cl)c2)NC(=O)CN(C)C(=O)[C@H](Cc2ccc(C)cc2)N(C)C(=O)CN(C)C(=O)CN(C)C1=O [Compound 814] ([NMeAbu(4,4,4-F3)]I[Sar][Sar][NMePhe(4-Me)][Sar][hPhe(3-Cl-4-CF3)]P[Ac5c][NMeChg][NMeD]-Pyrrolidide; lactam N-11) | 0.41 nM | 20 to 50 nM
CC[C@H](C)[C@@H]1NC(=O)[C@H](C2CCC2)N(C)C(=O)C[C@@H](C)NC(=O)[C@H](C(C)C)N(C)C(=O)C2(CCCC2)NC(=O)[C@@H]2CCCN2C(=O)[C@H](CCc2ccc(C(F)(F)F)c(Cl)c2)NC(=O)CN(C)C(=O)[C@H](CC2CCCCC2)N(C)C(=O)CN(C)C(=O)CN(C)C1=O [Compound 815] (cyclo([Ac5c][NMeV][d(β3hA)][NMeGly(cBu)]I[Sar][Sar][NMeCha][Sar][hPhe(3-Cl-4-CF3)]P)) | 26 nM | 100 to 500 nM
CC[C@H](C)[C@@H]1NC(=O)[C@H](CC(C)C)N(C)C(=O)C[C@@H](C(=O)N(C)C)N(C)C(=O)[C@H]([C@@H](C)CC)N(C)C(=O)C2(CCCC2)NC(=O)[C@H](CCN2CCCC(F)(F)C2)N(C)C(=O)[C@H](CCc2ccc(C(F)(F)F)c(Cl)c2)NC(=O)CN(C)C(=O)[C@H](Cc2ccc(C)cc2)N(C)C(=O)[C@@H]2CCN2C(=O)[C@H](C)N(C)C1=O [Compound 818] ([NMeL]I[NMeA][Aze][NMePhe(4-Me)][Sar][hPhe(3-Cl-4-CF3)][NMeAbu(3,3-F2-piperidino)][Ac5c][NMeI][NMeD]-NMe2; lactam N-11) | 1.2 nM | 20 to 50 nM
CC[C@H](C)[C@@H]1NC(=O)[C@H]([C@@H](C)OC)N(C)C(=O)C[C@@H](C(=O)N2CCCCC2)N(C)C(=O)[C@H](C2CCCCC2)N(C)C(=O)C2(CCCC2)NC(=O)[C@@H]2CCCN2C(=O)[C@H](CCc2ccc(C(F)(F)F)c(Cl)c2)NC(=O)CN(C)C(=O)[C@H](CC2CCCCC2)N(C)C(=O)CN(C)C(=O)CN(C)C1=O [Compound 820] ([NMeT](Me)I[Sar][Sar][NMeCha][Sar][hPhe(3-Cl-4-CF3)]P[Ac5c][NMeChg][NMeD]-Piperidide; lactam N-11) | 0.73 nM | 50 to 100 nM
